Measured values: patent US5294611A, “Angiotensin II receptor blocking 2,3,6 substituted quinazolinones” (American Cyanamid Company, priority 1993, dated 1994)
Like-named read-outs stand apart in the source and are kept apart here.

Test system: Angiotensin II (AII) vasopressor response
Assay: AII Challenge: antagonism of angiotensin II vasopressor response in conscious spontaneously hypertensive rats
Assay type: in vivo, rat (male okamoto-Aoki SHR)
Details: for inhibition in vivo at 1 mg/kg / inhibition in vivo at 3 mg/kg / inhibition in vivo at 5 mg/kg: Rattus norvegicus; for inhibition in vivo at 1 mg/kg / inhibition in vivo at 3 mg/kg: iv; for inhibition in vivo at 1 mg/kg / inhibition in vivo at 3 mg/kg / inhibition in vivo at 5 mg/kg / Average Change: SHR n=2; for inhibition in vivo at 3 mg/kg / inhibition in vivo at 5 mg/kg: read-out: Inhibition; for inhibition in vivo at 5 mg/kg: po
Summary of the method: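 Conscious male SHR (16–20 weeks, ~330 g) cannulated under local procaine, blood pressure recorded via transducer. Angiotensin II (human) 0.05 and 0.1 ug/kg i.v. given before and after test compound dosed i.v., i.p. or orally; response measured as rise in systolic pressure (mmHg).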

CCCCc1nc2ccc([C@H]3[C@@H]4CCC[C@@H]4ON3C)cc2c(=O)n1Cc1ccc(-c2ccccc2-c2nnn[nH]2)cc1 (relative stereo) [Example 50]
inhibition in vivo at 1 mg/kg (0.5 h, 1 mg/kg I.V., AII 0.05 mcg/kg IV, 30 min post dose): 17% | inhibition in vivo at 1 mg/kg (0.5 h, 1 mg/kg I.V., AII 0.1 mcg/kg IV, 30 min post dose): 39% | inhibition in vivo at 3 mg/kg (0.5 h, 3 mg/kg I.V., AII 0.05 mcg/kg IV, 30 min post dose): 64% | inhibition in vivo at 3 mg/kg (0.5 h, 3 mg/kg I.V., AII 0.1 mcg/kg IV, 30 min post dose): 66% | inhibition in vivo at 1 mg/kg (1 h, 1 mg/kg I.V., AII 0.05 mcg/kg IV, 60 min post dose): 17% | inhibition in vivo at 1 mg/kg (1 h, 1 mg/kg I.V., AII 0.1 mcg/kg IV, 60 min post dose): 27% | inhibition in vivo at 3 mg/kg (1 h, 3 mg/kg I.V., AII 0.05 mcg/kg IV, 60 min post dose): 70% | inhibition in vivo at 3 mg/kg (1 h, 3 mg/kg I.V., AII 0.1 mcg/kg IV, 60 min post dose): 65% | inhibition in vivo at 1 mg/kg (2 h, 1 mg/kg I.V., AII 0.05 mcg/kg IV, 120 min post dose): 17% | inhibition in vivo at 1 mg/kg (2 h, 1 mg/kg I.V., AII 0.1 mcg/kg IV, 120 min post dose): 35% | inhibition in vivo at 3 mg/kg (2 h, 3 mg/kg I.V., AII 0.05 mcg/kg IV, 120 min post dose): 66% | inhibition in vivo at 3 mg/kg (2 h, 3 mg/kg I.V., AII 0.1 mcg/kg IV, 120 min post dose): 75% | inhibition in vivo at 1 mg/kg (3 h, 1 mg/kg I.V., AII 0.05 mcg/kg IV, 180 min post dose): 25% | inhibition in vivo at 1 mg/kg (3 h, 1 mg/kg I.V., AII 0.1 mcg/kg IV, 180 min post dose): 33% | inhibition in vivo at 3 mg/kg (3 h, 3 mg/kg I.V., AII 0.05 mcg/kg IV, 180 min post dose): 59% | inhibition in vivo at 3 mg/kg (3 h, 3 mg/kg I.V., AII 0.1 mcg/kg IV, 180 min post dose): 68% | inhibition in vivo at 1 mg/kg (4 h, 1 mg/kg I.V., AII 0.05 mcg/kg IV, 240 min post dose): -8% | inhibition in vivo at 1 mg/kg (4 h, 1 mg/kg I.V., AII 0.1 mcg/kg IV, 240 min post dose): -16% | inhibition in vivo at 1 mg/kg (5 h, 1 mg/kg I.V., AII 0.05 mcg/kg IV, 300 min post dose): -25% | inhibition in vivo at 1 mg/kg (5 h, 1 mg/kg I.V., AII 0.1 mcg/kg IV, 300 min post dose): -11% | inhibition in vivo at 1 mg/kg (16.5 h, 1 mg/kg I.V., AII 0.05 mcg/kg IV, 990 min post dose (so in the source)): 20% | inhibition in vivo at 1 mg/kg (16.5 h, 1 mg/kg I.V., AII 0.1 mcg/kg IV, 990 min post dose (so in the source)): 9% | inhibition in vivo at 3 mg/kg ([…], 3 mg/kg I.V., AII 0.05 mcg/kg IV, 90 min post dose): 80% | inhibition in vivo at 3 mg/kg ([…], 3 mg/kg I.V., AII 0.1 mcg/kg IV, 90 min post dose): 52% | inhibition in vivo at 5 mg/kg (0.5 h, 5 mg/kg P.O., AII 0.05 mcg/kg IV, 30 min post dose): 47% | inhibition in vivo at 5 mg/kg (0.5 h, 5 mg/kg P.O., AII 0.1 mcg/kg IV, 30 min post dose): 25% | inhibition in vivo at 5 mg/kg (1 h, 5 mg/kg P.O., AII 0.05 mcg/kg IV, 60 min post dose): 47% | inhibition in vivo at 5 mg/kg (1 h, 5 mg/kg P.O., AII 0.1 mcg/kg IV, 60 min post dose): 32% | inhibition in vivo at 5 mg/kg (2 h, 5 mg/kg P.O., AII 0.05 mcg/kg IV, 120 min post dose): 68% | inhibition in vivo at 5 mg/kg (3 h, 5 mg/kg P.O., AII 0.05 mcg/kg IV, 180 min post dose): 35% | inhibition in vivo at 5 mg/kg (3 h, 5 mg/kg P.O., AII 0.1 mcg/kg IV, 180 min post dose): 18% | inhibition in vivo at 5 mg/kg ([…], 5 mg/kg P.O., AII 0.05 mcg/kg IV, 90 min post dose): 53% | inhibition in vivo at 5 mg/kg ([…], 5 mg/kg P.O., AII 0.1 mcg/kg IV, 90 min post dose): 52% | Average Change (1 mg/kg I.V., AII 0.05 mcg/kg IV, 30 min post dose): 25 mmHg | Average Change (1 mg/kg I.V., AII 0.05 mcg/kg IV, 60 min post dose): 25 mmHg | Average Change (1 mg/kg I.V., AII 0.05 mcg/kg IV, 120 min post dose): 25 mmHg | Average Change (1 mg/kg I.V., AII 0.05 mcg/kg IV, 180 min post dose): 22.5 mmHg | Average Change (1 mg/kg I.V., AII 0.05 mcg/kg IV, 240 min post dose): 32.5 mmHg | Average Change (1 mg/kg I.V., AII 0.05 mcg/kg IV, 300 min post dose): 37.5 mmHg | Average Change (1 mg/kg I.V., AII 0.05 mcg/kg IV, 990 min post dose (so in the source)): 24 mmHg | Average Change (1 mg/kg I.V., AII 0.1 mcg/kg IV, 30 min post dose): 25 mmHg | Average Change (1 mg/kg I.V., AII 0.1 mcg/kg IV, 60 min post dose): 30 mmHg | Average Change (1 mg/kg I.V., AII 0.1 mcg/kg IV, 120 min post dose): 26.5 mmHg | Average Change (1 mg/kg I.V., AII 0.1 mcg/kg IV, 180 min post dose): 27.5 mmHg | Average Change (1 mg/kg I.V., AII 0.1 mcg/kg IV, 240 min post dose): 47.5 mmHg | Average Change (1 mg/kg I.V., AII 0.1 mcg/kg IV, 300 min post dose): 45.5 mmHg | Average Change (1 mg/kg I.V., AII 0.1 mcg/kg IV, 990 min post dose (so in the source)): 37.5 mmHg | Average Change (3 mg/kg I.V., AII 0.05 mcg/kg IV, 30 min post dose): 20 mmHg | Average Change (3 mg/kg I.V., AII 0.05 mcg/kg IV, 60 min post dose): 16.5 mmHg | Average Change (3 mg/kg I.V., AII 0.05 mcg/kg IV, 90 min post dose): 11 mmHg | Average Change (3 mg/kg I.V., AII 0.05 mcg/kg IV, 120 min post dose): 18.5 mmHg | Average Change (3 mg/kg I.V., AII 0.05 mcg/kg IV, 180 min post dose): 22.5 mmHg | Average Change (3 mg/kg I.V., AII 0.1 mcg/kg IV, 30 min post dose): 18.5 mmHg | Average Change (3 mg/kg I.V., AII 0.1 mcg/kg IV, 60 min post dose): 19 mmHg | Average Change (3 mg/kg I.V., AII 0.1 mcg/kg IV, 90 min post dose): 26.5 mmHg | Average Change (3 mg/kg I.V., AII 0.1 mcg/kg IV, 120 min post dose): 14 mmHg | Average Change (3 mg/kg I.V., AII 0.1 mcg/kg IV, 180 min post dose): 17.5 mmHg | Average Change (5 mg/kg P.O., AII 0.05 mcg/kg IV, 30 min post dose): 22.5 mmHg | Average Change (5 mg/kg P.O., AII 0.05 mcg/kg IV, 60 min post dose): 22.5 mmHg | Average Change (5 mg/kg P.O., AII 0.05 mcg/kg IV, 90 min post dose): 20 mmHg | Average Change (5 mg/kg P.O., AII 0.05 mcg/kg IV, 120 min post dose): 13.5 mmHg | Average Change (5 mg/kg P.O., AII 0.05 mcg/kg IV, 180 min post dose): 27.5 mmHg | Average Change (5 mg/kg P.O., AII 0.1 mcg/kg IV, 30 min post dose): 32 mmHg | Average Change (5 mg/kg P.O., AII 0.1 mcg/kg IV, 60 min post dose): 29 mmHg | Average Change (5 mg/kg P.O., AII 0.1 mcg/kg IV, 90 min post dose): 20.5 mmHg | Average Change (5 mg/kg P.O., AII 0.1 mcg/kg IV, 120 min post dose): 22.5 mmHg | Average Change (5 mg/kg P.O., AII 0.1 mcg/kg IV, 180 min post dose): 35 mmHg | Change (single SHR, 5 mg/kg P.O., AII 0.1 mcg/kg IV, 180 min post dose): 35 mmHg
